Laboratory results reported in patent US8278309B2, “Synthetic mimetics of host defense and uses thereof” (priority 2008, dated 2012).
≈ marks a conversion by molar mass, not a printed value. Like-named read-outs stand apart in the source and are kept apart here.

Legend:
[1] = system: Entero. faecalis; assay: MIC broth microdilution, Gram-positive clinical isolates; type: cell-based; settings: Enterococcus faecalis
Protocol: (§1) Compound A was evaluated in vitro in accordance with defined CLSI documents specific to the organisms (aerobic, anaerobic or yeast) tested in this study. Ampicillin, ceftazidime, cefuroxime, ciprofloxacin, linezolid, and vancomycin were tested alongside as comparator agents for aerobic bacteria; clindamycin and metronidazole were tested as comparators for anaerobes; fluconazole was tested as a comparator for yeast isolates. Stock solutions of Compound A were prepared in dimethyl sulfoxide (DMSO). Ampicillin, ceftazidime, cefuroxime, ciprofloxacin, linezolid, vancomycin, metronidazole, clindamycin, and fluconazole were prepared each according to its manufacturer's guideline.
(§2) Minimum inhibitory concentrations (MICs) in μg/ml were determined according to CLSI guideline M7-A7 by broth microdilution. All aerobes were tested using Mueller-Hinton broth medium with the exception of Streptococcus spp., which were tested using cation-adjusted Mueller-Hinton broth supplemented with 2-5% lysed horse blood.

[2] = system: Entero. faecium (VRE); assay: as above; type: cell-based; settings: Enterococcus faecium
Protocol: as §1, §2

[3] = system: Staph. aureus (MRSA); assay: as above; type: cell-based; settings: Staphylococcus aureus
Protocol: as §1, §2

[4] = system: Staph. spidermidis; assay: as above; type: cell-based
Protocol: as §1, §2

[5] = system: Staph. spp. (coagulase−); assay: as above; type: cell-based
Protocol: as §1, §2

[6] = system: Strept. agalactiae; assay: as above; type: cell-based; settings: Streptococcus agalactiae
Protocol: as §1, §2

[7] = system: Strept. pneumoniae; assay: as above; type: cell-based; settings: Streptococcus pneumoniae
Protocol: as §1, §2

[8] = system: Strept. pyogenes; assay: as above; type: cell-based; settings: Streptococcus pyogenes
Protocol: as §1, §2

[9] = system: Strept. viridians; assay: as above; type: cell-based
Protocol: as §1, §2

[10] = system: Acinetobacter spp.; assay: MIC broth microdilution, Gram-negative clinical isolates; type: cell-based; settings: 2-3 isolates/organism
Protocol: as §1, §2

[11] = system: Citrobacter freundi; assay: as above; type: cell-based
Protocol: as §1, §2

[12] = system: Citrobacter koseri; assay: as above; type: cell-based
Protocol: as §1, §2

[13] = system: Enterobacter cloacae; assay: as above; type: cell-based
Protocol: as §1, §2

[14] = system: Escherichia coli; assay: as above; type: cell-based
Protocol: as §1, §2

[15] = system: Haemophilus influenzae; assay: as above; type: cell-based
Protocol: as §1, §2

[16] = system: Klebsiella oxytoca; assay: as above; type: cell-based
Protocol: as §1, §2

[17] = system: Klebsiella pneumoniae; assay: as above; type: cell-based
Protocol: as §1, §2

[18] = system: Morganella morganii; assay: as above; type: cell-based
Protocol: as §1, §2

[19] = system: Proteus mirabilis; assay: as above; type: cell-based
Protocol: as §1, §2

[20] = system: Proteus vulgarisi; assay: as above; type: cell-based
Protocol: as §1, §2

[21] = system: Providencia stuartii; assay: as above; type: cell-based
Protocol: as §1, §2

[22] = system: Pseudomonas aeruginosa; assay: as above; type: cell-based; settings: 2-3 isolates/organism
Protocol: as §1, §2

[23] = system: Serratia marcescens; assay: as above; type: cell-based
Protocol: as §1, §2

[24] = system: Stenotrophomonas maltophilia; assay: as above; type: cell-based
Protocol: as §1, §2

[25] = system: Staph. saprophyticus; assay: MIC broth microdilution, Gram-positive clinical isolates; type: cell-based; settings: Staphylococcus saprophyticus
Protocol: as §1, §2

[26] = system: MSSA ATCC 29213; assay: Serial passage resistance, MSSA; type: cell-based, S. aureus; settings: serial passage at 0.5×MIC
Protocol: (§3) Frozen bacterial stocks (20 μL) of S. aureus ATCC29213 or methicillin-resistant S. aureus (MRSA ATCC 33591) were inoculated into 3 mL cation-adjusted Mueller-Hinton medium and incubated at 37° C. on a shaker platform (250 rpm) overnight. The suspension was diluted to approximately 5×10^5 cfu/mL and inoculated into a polypropylene (Costar) 96-well round bottom plate (90 μL volumes). Compound stock solutions of Compound A and norfloxacin (Sigma Aldrich, St. Louis, Mo.; Catalogue# N9890) were prepared in DMSO and serial two-fold dilutions of compound were made in 0.01% acetic acid, 0.2% bovine serum albumin directly in the wells of the polypropylene plate at 10 μL/well. Final concentrations of Compound A were 50, 25, 12.5, 6.25, 3.13, 1.56, 0.78, 0.39, 0.19, 0.098, 0.049, and 0.024 μg/mL. Final concentration ranges of norfloxacin were 100, 50, 25, 12.5, 6.25, 3.13, 1.56, 0.78, 0.39, 0.19, 0.098, and 0.049 μg/mL. […] All samples were performed in triplicate. Following a 24 hour incubation at 37° C., cell growth was assessed by observing the presence of “acceptable growth”, defined by CLSI as a ≧2 mm button or definite turbidity. The MIC wells were defined as the lowest concentration where acceptable growth was not observed. For serial passage, 50 μL aliquots were taken from 2 of 3 replicate wells at 0.5×MIC and combined into 900 μL of fresh cation-adjusted Mueller-Hinton medium. The OD600 was measured and the cell suspensions were inoculated into polypropylene 96-well round bottom plates (90 μL volumes) at approximately 5×10^5 cfu/mL. Ten μL of compound stock solutions were added previously to the wells to achieve the concentration ranges for each compound described above. All samples were performed in triplicate. The plates were incubated for 24 hours at 37° C. This process was repeated for a total of 17 passages and MIC values were recorded at each passage.

[27] = system: MRSA ATCC 33591; assay: Serial passage resistance, MRSA; type: cell-based, S. aureus; settings: serial passage at 0.5×MIC
Protocol: as §3

[28] = system: S. aureus; assay: MIC or MIC90 vs S. aureus (selectivity table); type: cell-based; settings: * marks MIC90
[29] = Staph. spidermidis, 2-3 isolates/organism, read-out: MIC
[30] = 2-3 isolates/organism, read-out: MIC
[31] = Proteus vulgarisi, 2-3 isolates/organism, read-out: MIC

CC(C)(O/N=C(\C(=O)N[C@@H]1C(=O)N2C(C(=O)[O-])=C(C[n+]3ccccc3)CS[C@H]12)c1csc(N)n1)C(=O)O [Ceftazidime]
MIC ([1]; Entero. faecalis, 2-3 isolates/organism, read-out: MIC): > 64 µg/mL
MIC ([2]; Entero. faecium (VRE), 2-3 isolates/organism, read-out: MIC): > 64 µg/mL
MIC ([3]; Staph. aureus (MRSA), 2-3 isolates/organism, read-out: MIC): 32 µg/mL (≈ 58.5 µM)
MIC [4, 29]: 16 to 32 µg/mL (≈ 29.3 to 58.5 µM)
MIC ([5]; Staph. spp. (coagulase−), 2-3 isolates/organism, read-out: MIC): 16 to 32 µg/mL (≈ 29.3 to 58.5 µM)
MIC ([6]; Strept. agalactiae, 2-3 isolates/organism, read-out: MIC): 0.5 µg/mL (≈ 0.915 µM)
MIC ([7]; Strept. pneumoniae, 2-3 isolates/organism, read-out: MIC): 0.25 µg/mL (≈ 0.457 µM)
MIC ([8]; Strept. pyogenes, 2-3 isolates/organism, read-out: MIC): 0.12 µg/mL (≈ 0.22 µM)
MIC ([9]; Strept. viridians, 2-3 isolates/organism, read-out: MIC): 0.5 to 4 µg/mL (≈ 0.915 to 7.32 µM)
MIC [10]: 2 to 64 µg/mL (≈ 3.66 to 117 µM)
MIC ([11]; Citrobacter freundi, 2-3 isolates/organism, read-out: MIC): 0.25 to 2 µg/mL (≈ 0.457 to 3.66 µM)
MIC [12, 30]: 0.12 to 0.25 µg/mL (≈ 0.22 to 0.457 µM)
MIC [13, 30]: 0.25 µg/mL (≈ 0.457 µM)
MIC [14, 30]: 0.06 µg/mL (≈ 0.11 µM)
MIC [15, 30]: 0.06 to 0.12 µg/mL (≈ 0.11 to 0.22 µM)
MIC [16, 30]: 0.06 to 0.12 µg/mL (≈ 0.11 to 0.22 µM)
MIC [17, 30]: 0.06 to 0.12 µg/mL (≈ 0.11 to 0.22 µM)
MIC [18, 30]: 2 to 16 µg/mL (≈ 3.66 to 29.3 µM)
MIC [19, 30]: 0.03 to 0.06 µg/mL (≈ 0.0549 to 0.11 µM)
MIC [20, 31]: 0.12 µg/mL (≈ 0.22 µM)
MIC [21, 30]: 0.12 to 0.64 µg/mL (≈ 0.22 to 1.17 µM)
MIC [22]: 1 to 8 µg/mL (≈ 1.83 to 14.6 µM)
MIC [23, 30]: 0.12 to 0.25 µg/mL (≈ 0.22 to 0.457 µM)
MIC [24, 30]: 4 to 8 µg/mL (≈ 7.32 to 14.6 µM)

CC(=O)NC[C@H]1CN(c2ccc(N3CCOCC3)c(F)c2)C(=O)O1 [Linezolid]
MIC [4, 29]: 0.5 to 1 µg/mL (≈ 1.48 to 2.96 µM)
MIC [16, 30]: > 16 µg/mL
MIC [20, 31]: > 16 µg/mL

CN[C@H](CC(C)C)C(=O)N[C@H]1C(=O)N[C@@H](CC(N)=O)C(=O)N[C@H]2C(=O)N[C@H]3C(=O)N[C@H](C(=O)N[C@H](C(=O)O)c4cc(O)cc(O)c4-c4cc3ccc4O)[C@H](O)c3ccc(c(Cl)c3)Oc3cc2cc(c3O[C@@H]2O[C@H](CO)[C@@H](O)[C@H](O)[C@H]2O[C@H]2C[C@](C)(N)[C@H](O)[C@H](C)O2)Oc2ccc(cc2Cl)[C@H]1O [Vancomycin]
MIC [1]: 1 µg/mL (≈ 0.69 µM)
MIC ([2]; VRE): > 128 µg/mL
MIC ([3]; MRSA): 0.5 to 1 µg/mL (≈ 0.345 to 0.69 µM)
MIC [25]: 1 to 2 µg/mL (≈ 0.69 to 1.38 µM)
MIC [4]: 2 µg/mL (≈ 1.38 µM)
MIC [5]: 1 to 2 µg/mL (≈ 0.69 to 1.38 µM)
MIC [6]: 0.5 µg/mL (≈ 0.345 µM)
MIC [7]: 0.5 µg/mL (≈ 0.345 µM)
MIC [8]: 0.5 µg/mL (≈ 0.345 µM)
MIC [9]: 0.5 to 1 µg/mL (≈ 0.345 to 0.69 µM)
MIC ([11]; Citrobacter): > 128 µg/mL
MIC [12]: > 128 µg/mL
MIC [13]: > 128 µg/mL
MIC [14]: > 128 µg/mL
MIC [15]: 128 µg/mL (≈ 88.3 µM)
MIC [16]: > 128 µg/mL
MIC [17]: > 128 µg/mL
MIC [18]: > 128 µg/mL
MIC [19]: > 128 µg/mL
MIC [20]: > 128 µg/mL
MIC [21]: > 128 µg/mL
MIC [23]: > 128 µg/mL
MIC [24]: 32 to 128 µg/mL (≈ 22.1 to 88.3 µM)

CCn1cc(C(=O)O)c(=O)c2cc(F)c(N3CCNCC3)cc21 [norfloxacin, reference compound]
increase in MIC by passage 15 [26]: 128 fold
rise in MIC values by passage 3 [26]: 4 doubling dilutions
increase in MIC by passage 15 [27]: 64 fold
rise in MIC values by passage 3 [27]: 4 doubling dilutions

CC[C@H](C)[C@H](NC(=O)CN)C(=O)NCC(=O)N[C@@H](C)C(=O)N[C@H](C(=O)N[C@@H](CC(C)C)C(=O)N[C@@H](CCCCN)C(=O)N[C@H](C(=O)N[C@@H](CC(C)C)C(=O)N[C@H](C(=O)N[C@H](C(=O)NCC(=O)N[C@@H](CC(C)C)C(=O)N1CCC[C@H]1C(=O)N[C@@H](C)C(=O)N[C@@H](CC(C)C)C(=O)N[C@H](C(=O)N[C@@H](CO)C(=O)N[C@@H](Cc1c[nH]c2ccccc12)C(=O)N[C@H](C(=O)N[C@@H](CCCCN)C(=O)N[C@@H](CCCNC(=N)N)C(=O)N[C@@H](CCCCN)C(=O)N[C@@H](CCCNC(=N)N)C(=O)N[C@@H](CCC(N)=O)C(=O)N[C@@H](CCC(N)=O)C(N)=O)[C@@H](C)CC)[C@@H](C)CC)[C@@H](C)O)[C@@H](C)O)C(C)C)C(C)C [melittin, reference compound]
MIC or MIC90* S. aureus [28]: 2 µg/mL (≈ 0.703 µM)
